The values that follow come from ChEMBL document CHEMBL1201862, “PubChem BioAssay data set” (2004).

Some test systems named below: SK-MEL-5; CAKI-1; KM12; SR; IGROV-1; TK-10; OVCAR-4; HOP-92; NCI-H226; OVCAR-3; MDA-N; NCI/ADR-RES; SF-268; A498; A549; ACHN; MOLT-4; RXF 393; HT-29.
Common to all, as to experiment: NCI tumour cell line growth inhibition, 48 h

SMILES strings stand for the structures.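 Compound exposure: 48 hours, 5 concentrations, 96-well plates. GI50 = concentration required for 50% inhibition of growth.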 Activity calls are given as the source filed them. No stated cut-off is given here; in the data, active = GI50 up to about 1.1 µM and inactive = higher. Where a SMILES comes first, the peptide text is derived from it. The star is where a group is joined. X33 = O=C(c1ccc(-c2ccc(Cl)cc2Cl)o1)*

On to `CCC(C)C(NC(=O)CNC(=O)C(Cc1ccccc1)NC(=O)C1CCCN1C(=O)c1ccc(-c2ccc(Cl)cc2Cl)o1)C(=O)OC` (centres undefined) (X33-PFGI-OMe; configuration not given here), for which the GI50 in the test on SK-MEL-5 is 12.2 µM (inactive); with CAKI-1, 31 µM (inactive); in the test on KM12 it was 37.5 µM (inactive); in the test on SR it was 12.5 µM (inactive); in the test with IGROV-1 it was 19.6 µM (inactive); in the test on TK-10 it was 51.9 µM (inactive). Also, the GI50 in the test on OVCAR-4 is 28.6 µM (inactive); in the test on HOP-92, 11.2 µM (inactive); in the test on NCI-H226 it was > 100 µM (inactive); with OVCAR-3, 23.5 µM (inactive); with MDA-N, 23.4 µM (inactive); with NCI/ADR-RES, 36.7 µM (inactive). For the same molecule, the GI50 in the test on SF-268 was 69.2 µM (inactive); in the test on A498 it was 7.4 µM (inactive); in the test on A549, 23.9 µM (inactive); with ACHN, 33.8 µM (inactive); with MOLT-4, 10.6 µM (inactive); in the test with RXF 393, 19.4 µM (inactive). Moreover, in the test on HT-29, the GI50 was 15 µM (inactive).
Turning to `O=C(NC1=C(Cl)C(=O)c2ccccc2C1=O)C(=O)c1c(O)c2ccccc2oc1=O`, the GI50 in the test with SK-MEL-5 is 0.368 µM (active); in the test on CAKI-1, 9.66 µM (inactive); in the test with KM12, 4.55 µM (inactive); with SR, 3.04 µM (inactive); in the test on IGROV-1, 3.27 µM (inactive); with TK-10, 17.5 µM (inactive). In addition, the GI50 is 7.4 µM (inactive) with OVCAR-4; 12.4 µM (inactive) in the test on HOP-92; 9.18 µM (inactive) in the test on NCI-H226; 1.16 µM (inactive) in the test on OVCAR-3; 1.37 µM (inactive) with MDA-N; 3.13 µM (inactive) in the test with NCI/ADR-RES. For the same molecule, the GI50 was 5.62 µM (inactive) in the test on SF-268; 14.7 µM (inactive) in the test on A498; 2.33 µM (inactive) in the test on A549; 3.4 µM (inactive) with ACHN; 4.65 µM (inactive) in the test with MOLT-4; 5.62 µM (inactive) in the test on RXF 393. Besides, in the test with HT-29, the GI50 is 3.07 µM (inactive).
Consider `CN(C)c1ccc(C=C2C(=O)NC(=S)NC2=O)c2ccccc12`, for which the GI50 in the test with SK-MEL-5 was > 100 µM (inactive); in the test with CAKI-1, 98.9 µM (inactive); in the test with KM12, > 100 µM (inactive); in the test on SR, 33.5 µM (inactive); in the test with IGROV-1 it was 36.1 µM (inactive); in the test on TK-10, > 100 µM (inactive). For the same molecule, the GI50 in the test on OVCAR-4 was > 100 µM (inactive); with HOP-92, 25.1 µM (inactive); in the test with NCI-H226, > 100 µM (inactive); in the test with OVCAR-3, 50.9 µM (inactive); with MDA-N it was 42.7 µM (inactive); in the test on NCI/ADR-RES, > 100 µM (inactive). The GI50 is 29 µM (inactive) in the test with SF-268; 53.7 µM (inactive) with A498; > 100 µM (inactive) in the test on A549; > 100 µM (inactive) in the test with ACHN; 29.6 µM (inactive) with MOLT-4; 26.3 µM (inactive) with RXF 393. In the test on HT-29, the GI50 is > 100 µM (inactive).
Regarding `Cn1c(=O)c2[nH]c(-n3nc(-c4ccccc4)cc3N)nc2n(C)c1=O`, the GI50 was 5.38 µM (inactive) in the test on SK-MEL-5; 2.12 µM (inactive) with CAKI-1; 6.58 µM (inactive) with KM12; 4.31 µM (inactive) in the test on SR; 1.34 µM (inactive) in the test with IGROV-1; 12.4 µM (inactive) in the test on TK-10. The GI50 was 2.91 µM (inactive) in the test on OVCAR-4; 6.46 µM (inactive) in the test with HOP-92; 5.55 µM (inactive) with NCI-H226; 5.35 µM (inactive) with OVCAR-3; 11.7 µM (inactive) in the test on MDA-N; 2.4 µM (inactive) in the test with NCI/ADR-RES. The GI50 is 11.3 µM (inactive) in the test with SF-268; 11.1 µM (inactive) in the test with A498; 5.78 µM (inactive) in the test on A549; 3.66 µM (inactive) in the test on ACHN; 7.14 µM (inactive) in the test on MOLT-4; 26.8 µM (inactive) in the test on RXF 393. Also, in the test with HT-29, the GI50 was 4.15 µM (inactive).
As for `COC(=O)CCCC(=O)/C(=N\Nc1ccc(Cl)cc1)Nc1c(Cl)cccc1Cl`, the GI50 in the test with SK-MEL-5 was 32.8 µM (inactive); in the test with CAKI-1, > 100 µM (inactive); in the test with KM12 it was 32 µM (inactive); in the test on SR, 20.5 µM (inactive); in the test on IGROV-1 it was > 81.7 µM (inactive); with TK-10, > 74.1 µM (inactive). Moreover, the GI50 in the test on OVCAR-4 was 46.3 µM (inactive); with HOP-92, 45 µM (inactive); in the test on NCI-H226, 45.2 µM (inactive); in the test with OVCAR-3 it was 55.5 µM (inactive); with MDA-N, > 84.5 µM (inactive); with NCI/ADR-RES it was > 74.1 µM (inactive). Besides, the GI50 was > 89.7 µM (inactive) in the test on SF-268; 29.5 µM (inactive) in the test with A498; 24.3 µM (inactive) in the test on A549; > 87.9 µM (inactive) in the test on ACHN; 26 µM (inactive) with MOLT-4; 8.69 µM (inactive) in the test with RXF 393. Further, the GI50 in the test on HT-29 is 56.6 µM (inactive).
Consider `COc1ccc(/C=C/C(=O)N[C@@H]2C(=O)N3[C@@H]2SC(C)(C)[C@@H]3C(=O)O)cc1`, for which the GI50 with SK-MEL-5, in the test with CAKI-1, in the test with KM12, in the test on SR, with TK-10 and with OVCAR-4 was > 100 µM (inactive) throughout. For the same molecule, the GI50 was 47.8 µM (inactive) in the test on HOP-92; > 100 µM (inactive) in the test with NCI-H226; > 100 µM (inactive) in the test on OVCAR-3; > 100 µM (inactive) with MDA-N; > 100 µM (inactive) in the test on NCI/ADR-RES; > 100 µM (inactive) in the test on SF-268. Moreover, the GI50 in the test with A498, in the test with A549, in the test with ACHN, with MOLT-4, with RXF 393 and in the test with HT-29 was > 100 µM (inactive) throughout.
As to `Cc1cn(C2CC(Br)C(COC(c3ccccc3)(c3ccccc3)c3ccccc3)O2)c(=O)[nH]c1=O` (centres undefined), the GI50 in the test with SK-MEL-5 is 12.7 µM (inactive); in the test on CAKI-1, 15.1 µM (inactive); in the test on KM12, 6.71 µM (inactive); in the test with SR it was 5 µM (inactive); in the test on IGROV-1 it was 14.2 µM (inactive); with TK-10, 14.7 µM (inactive). The GI50 is 13 µM (inactive) in the test with OVCAR-4; 11.2 µM (inactive) with HOP-92; 19.2 µM (inactive) in the test with NCI-H226; 12.6 µM (inactive) in the test with OVCAR-3; 14.9 µM (inactive) in the test on MDA-N; 13.7 µM (inactive) with NCI/ADR-RES. Also, the GI50 in the test with SF-268 was 13.8 µM (inactive); with A498, 15.3 µM (inactive); in the test with A549 it was 10.5 µM (inactive); with ACHN, 13.8 µM (inactive); in the test with MOLT-4 it was 8.17 µM (inactive); in the test on RXF 393, 11.2 µM (inactive). Moreover, the GI50 in the test with HT-29 was 10.9 µM (inactive).
On to `Cc1cc(S(=O)(=O)N2CCNNC2=O)c(S)cc1Cl`, for which the GI50 in the test on SK-MEL-5 is > 100 µM (inactive); with CAKI-1 it was 33.5 µM (inactive); with KM12 it was > 100 µM (inactive); with SR it was > 100 µM (inactive); in the test on IGROV-1 it was 87.9 µM (inactive); in the test on TK-10, > 100 µM (inactive). The GI50 was > 100 µM (inactive) in the test on OVCAR-4; 48.4 µM (inactive) in the test with HOP-92; > 100 µM (inactive) in the test with NCI-H226; > 100 µM (inactive) in the test with OVCAR-3; > 100 µM (inactive) with MDA-N; > 100 µM (inactive) in the test with NCI/ADR-RES. The GI50 was > 100 µM (inactive) in the test on SF-268; > 100 µM (inactive) with A498; 56.4 µM (inactive) in the test with A549; > 100 µM (inactive) with ACHN; 31.6 µM (inactive) in the test on MOLT-4; 13.7 µM (inactive) in the test on RXF 393.
As to `COc1ccc(C2c3cc4c(c(OC)c3CC3OCC(=O)C32)OCO4)cc1OC` (centres undefined), the GI50 is 0.037 µM (active) with SK-MEL-5; 0.0405 µM (active) in the test on CAKI-1; 0.0318 µM (active) with KM12; < 0.01 µM (active) in the test with SR; < 0.01 µM (active) in the test on IGROV-1; 60.7 µM (inactive) in the test on TK-10. The GI50 is 0.0364 µM (active) with OVCAR-4; 25 µM (inactive) in the test with HOP-92; 0.0385 µM (active) in the test on NCI-H226; < 0.01 µM (active) with MDA-N; 0.0377 µM (active) with NCI/ADR-RES; 0.416 µM (active) in the test on SF-268. Further, the GI50 in the test on A498 was 0.0783 µM (active); in the test on A549, 0.0647 µM (active); with ACHN, < 0.01 µM (active); with MOLT-4 it was 0.13 µM (active); with RXF 393, 0.0212 µM (active); in the test on HT-29, < 0.01 µM (active).
Take `O=S1(=O)c2ccccc2N2C(c3ccccc3)=NOC2(c2ccccc2)CC1c1ccc(Br)cc1` (centres undefined): the GI50 in the test with SK-MEL-5, in the test on KM12, with SR, with IGROV-1, with TK-10 and in the test on OVCAR-4 was > 100 µM (inactive) each time. The GI50 with HOP-92 was 32.4 µM (inactive); in the test on NCI-H226, > 100 µM (inactive); in the test on OVCAR-3, > 100 µM (inactive); with MDA-N, > 100 µM (inactive); in the test with NCI/ADR-RES it was > 100 µM (inactive); in the test on SF-268, > 100 µM (inactive). In addition, the GI50 in the test on A498, in the test on A549, in the test with ACHN, with MOLT-4, with RXF 393 and in the test on HT-29 was > 100 µM (inactive) throughout.
For `CN(NC(=O)CCCl)C1=NCCN1`, the GI50 in the test with SK-MEL-5, in the test on KM12, in the test on SR, with IGROV-1, in the test on TK-10 and in the test with OVCAR-4 was > 100 µM (inactive) each time. For the same molecule, the GI50 in the test on HOP-92, with NCI-H226, in the test on OVCAR-3, with MDA-N, with NCI/ADR-RES and with SF-268 was > 100 µM (inactive) throughout. The GI50 in the test with A498, in the test with A549, in the test with ACHN, in the test with MOLT-4, with RXF 393 and in the test with HT-29 was > 100 µM (inactive) throughout.
